Assays:
[1] = system: RK3E-Transgene Vector (empty vector control RK3E cells); test: Drug response testing (Cell Titer-Glo proliferation), RK3E empty vector control; conditions: Rattus norvegicus, 72 h, read-out: Stimulated Proliferation (IC50)
Method: (§1) After 24 hours, cells were serum starved overnight, then re-fed with 0.5% FBS growth media. […] The Microtiter plates were then incubated for 72 hours and assayed for adenosine triphosphate (ATP; a marker of metabolically active cells) content using the Cell Titer-Glo® Luminescent Cell Viability assay (Promega Corp., Madison, WI, USA) following the manufacturer's instructions, with modifications. Briefly, cells were allowed to equilibrate to room temperature, at which time a 1:1 mixture of Cell Titer-Glo® reagent was added. Cells were then placed on an orbital shaker for 2 minutes and incubated for 10 minutes at room temperature to stabilize the luminescent signal. The luminescence was quantified and measurements were conducted using an Envision Multilabel plate reader (Perkin Elmer; Waltham, MA, USA).

[2] = system: RK3E-Transgene TACC3-V3 (FGFR fusion stably transfected RK3E cells); test: Drug response testing (Cell Titer-Glo proliferation), RK3E FGFR3:TACC3 v3; conditions: Rattus norvegicus, 72 h, read-out: Stimulated Proliferation (IC50)
Method: (§2) RK3E (rat kidney epithelial cells) cells were purchased from ATCC (Manassas, VA, USA) and cultured in DMEM supplemented with FBS and antibiotics (Invitrogen, Grand Island, NY, USA).
as §1

[3] = system: RK3E-Transgene BAIA2PL1 (FGFR fusion stably transfected RK3E cells); test: Drug response testing (Cell Titer-Glo proliferation), RK3E FGFR3:BAIAP2L1; conditions: Rattus norvegicus, 72 h, read-out: Stimulated Proliferation (IC50)
Method: as §1

[4] = system: FGFR fusion stably transfected RK3E cells; test: Drug response testing for FGFR-fusion overexpressing cell lines (overall statement); conditions: for sensitivity of cells harboring the FGFR fusions to the FGFR inhibitor in vitro: empty vector control did not show sensitivity
Method: as §1

RK3E-Transgene KRAS = test: Drug response testing (Cell Titer-Glo proliferation), RK3E KRAS; conditions: Rattus norvegicus, 72 h, read-out: Stimulated Proliferation (IC50)
Method: as §1

[5] = system: phosphorylation of FGFR, MAPK and S6 in FGFR fusion stably transfected RK3E cells; test: Downstream target expression (immunoblotting); assay type: cell-based, rat; conditions: 1 μM, in the presence of ligands, 1 hour; FIGS. 14A-14H
Method: For immunoblotting, whole cell lysates were collected in RIPA buffer (Thermo Scientific, Waltham, MA, USA) and sample protein concentration was assayed using BCA Protein Assay (Thermo Scientific). Equal amounts of protein (30 μg per lane) were loaded onto on 4-12% Bis-Tris gels (Invitrogen) before an SDS-page was performed. Proteins were transferred to nitrocellulose membranes and probed with antibodies against p-FGFR, total-FGFR2, p-MAPK, total-MAPK, p-S6, total S6, B-actin (Cell Signaling Technology, Danvers, MA, USA), and total-FGFR3 (Santa Cruz, Dallas, TX, USA). The membranes were blocked with Odyssey blocking buffer for 1 h at room temperature and incubated overnight at 4° C. in a primary antibody solution diluted in Odyssey blocking buffer (1:1000). After three washes in 0.1% Tween tris buffered saline (TBST), the membranes were probed with goat anti-mouse or donkey anti-rabbit IR-Dye […] or 800 cw labeled secondary antisera in Odyssey blocking buffer for 1 h at room temperature. Washes were repeated after secondary labeling and the membranes were imaged using a LiCor Odyssey scanner and the Odyssey 3.0 analytical software (LiCor, Lincoln, NE, USA).

[6] = system: RK3E-Transgene TACC3-V1 (FGFR fusion stably transfected RK3E cells); test: Drug response testing (Cell Titer-Glo proliferation), RK3E FGFR3:TACC3 v1; conditions: Rattus norvegicus, 72 h, read-out: Stimulated Proliferation (IC50)
Method: as §2, §1

RK3E-Transgene FGFR3 = test: Drug response testing (Cell Titer-Glo proliferation), RK3E FGFR3; conditions: Rattus norvegicus, 72 h, read-out: Stimulated Proliferation (IC50)
Method: as §1

[7] = system: advanced solid tumors (patients with FGFR fusion genes / FGFR aberrations); test: Phase I First-In-Human study in patients with advanced solid tumor; assay type: in vivo; conditions: FIG. 11
[8] = system: RK3E-Transgene CASP7 (FGFR fusion stably transfected RK3E cells); test: Drug response testing (Cell Titer-Glo proliferation), RK3E FGFR2:CASP7; conditions: Rattus norvegicus, 72 h, read-out: Stimulated Proliferation (IC50)
Source text: (§3) RK3E (rat kidney epithelial cells) cells were purchased from ATCC (Manassas, VA, USA) and cultured in DMEM supplemented with FBS and antibiotics (Invitrogen, Grand Island, NY, USA). FGFR fusion gene constructs were designed and cloned into the pReceiver expression vector (Genecopoeia, Rockville, MD, USA), which contains an HA-tag. Clones were transfected into RK3E cells using the Amaxa Cell Line Nucleofector (Lonza, Basel, Switzerland) following the manufacturer's protocol. The stably transfected cells were selected in complete medium with 800 ug/ml of G418 (Invitrogen).
as §1

RK3E-Transgene FGFR2 = test: Drug response testing (Cell Titer-Glo proliferation), RK3E FGFR2; conditions: Rattus norvegicus, 72 h, read-out: Stimulated Proliferation (IC50)
Method: as §2, §1

[9] = system: RK3E-Transgene CCDC6 (FGFR fusion stably transfected RK3E cells); test: Drug response testing (Cell Titer-Glo proliferation), RK3E FGFR2:CCDC6; conditions: Rattus norvegicus, 72 h, read-out: Stimulated Proliferation (IC50)
Source text: as §3, §1

[10] = system: RK3E-Transgene AFF3 (FGFR fusion stably transfected RK3E cells); test: Drug response testing (Cell Titer-Glo proliferation), RK3E FGFR2:AFF3; conditions: Rattus norvegicus, 72 h, read-out: Stimulated Proliferation (IC50)
Method: as §2, §1

[11] = system: RK3E-Transgene OFD1 (FGFR fusion stably transfected RK3E cells); test: Drug response testing (Cell Titer-Glo proliferation), RK3E FGFR2:OFD1; conditions: Rattus norvegicus, 72 h, read-out: Stimulated Proliferation (IC50)
Source text: as §3, §1

[12] = system: RK3E-Transgene BICC1 (FGFR fusion stably transfected RK3E cells); test: Drug response testing (Cell Titer-Glo proliferation), RK3E FGFR2:BICC1; conditions: Rattus norvegicus, 72 h, read-out: Stimulated Proliferation (IC50)
Method: as §2, §1

Compound | IC50 [1] [nM] | IC50 [2] [nM] | IC50 [3] [nM] | sensitivity of cells harboring the FGFR fusions to the FGFR inhibitor in vitro [4] | IC50 (RK3E-Transgene KRAS) [nM] | phosphorylation of FGFR and downstream targets MAPK and S6 (immunoblot) [5] | IC50 [6] [nM] | IC50 (RK3E-Transgene FGFR3) [nM] | sensitivity when compared to AZD4547 and NVP-BGJ398 ([4]; nanomolar concentration range) | clinical responses (RECIST) ([7]; 9 mg once a day (QD), 12 mg QD and 12 mg 7d on/off, patients with the FGFR fusion genes) | maximal percentage reduction of sum of the diameters of targeted lesions from baseline (RECIST) ([7]; dose level >= 6 mg, daily or intermittent (7 days on - 7 days off), patients whose tumors harbor FGFR gene translocations and mutations) | IC50 [8] [nM] | IC50 (RK3E-Transgene FGFR2) [nM] | IC50 [9] [nM] | IC50 [10] [nM] | IC50 [11] [nM] | IC50 [12] [nM]
COc1cc(CCc2cc(NC(=O)c3ccc(N4C[C@@H](C)N[C@@H](C)C4)cc3)n[nH]2)cc(OC)c1 [AZD4547, N-[5-[2-(3,5-Dimethoxyphenyl)ethyl]-2H-pyrazol-3-yl]-4-(3,5-diemthylpiperazin-1-yl)benzamide] | 8010 | 8.66 | 11.5 | showed sensitivity | 1480 | inhibited phosphorylation of FGFR and downstream targets i.e. MAPK and S6 | 16.5 | 5690 | – | – | – | – | – | – | – | – | –
COc1cc(OC)cc(N(CCNC(C)C)c2ccc3ncc(-c4cnn(C)c4)nc3c2)c1 [JNJ-42756493, N-(3,5-dimethoxyphenyl)-N′-(1-methylethyl)-N-[3-(1-methyl-1H-pyrazol-4-yl)quinoxalin-6-yl]ethane-1,2-diamine] | – | – | – | – | – | inhibited phosphorylation of FGFR and downstream targets i.e. MAPK and S6 | – | – | enhanced sensitivity | Significant clinical responses | appear to be more sensitive | – | – | – | – | – | –
CCN1CCN(c2ccc(Nc3cc(N(C)C(=O)Nc4c(Cl)c(OC)cc(OC)c4Cl)ncn3)cc2)CC1 [NVP-BGJ398, 3-(2,6-Dichloro-3,5-dimethoxy-phenyl)-1-{6-[4-(4-ethyl-piperazin-1-yl)-phenylamino]-pyrimid-4-yl}-1-methyl-urea] | > 10000 | 4.09 | 5.16 | showed sensitivity | 2140 | inhibited phosphorylation of FGFR and downstream targets i.e. MAPK and S6 | 2.59 | 6340 | – | – | – | 242 | > 10000 | 10.7 | 2.27 | 16 | 18.2
